In ChEMBL document CHEMBL1201862, “PubChem BioAssay data set” (2004):
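How tested: cells in 96-well plates exposed to compound for 48 hours at five concentrations. Abbreviation: GI50, concentration required for 50% inhibition of growth.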 Activity calls are given as the source filed them. Cut-off read from the data, not from the text of the source: active = GI50 up to about 1.1 µM and inactive = higher.

How the values were obtained:
Assay in all cases: inhibition of tumour cell growth, NCI panel, 48 h
786-0 = tested on: 786-0
SNB-19 = tested on: SNB-19
MOLT-4 = tested on: MOLT-4
RPMI-8226 = tested on: RPMI-8226
TK-10 = tested on: TK-10
HT-29 = tested on: HT-29
HOP-92 = tested on: HOP-92
OVCAR-8 = tested on: OVCAR-8
RXF 393 = tested on: RXF 393
SK-MEL-28 = tested on: SK-MEL-28
A549 = tested on: A549
DMS-114 = tested on: DMS-114
SK-MEL-5 = tested on: SK-MEL-5
HOP-18 = tested on: HOP-18
CCRF-CEM = tested on: CCRF-CEM
HCT-116 = tested on: HCT-116
U-251 = tested on: U-251
DLD-1 = tested on: DLD-1
HCC 2998 = tested on: HCC 2998
ACHN = tested on: ACHN
OVCAR-3 = tested on: OVCAR-3
EKVX = tested on: EKVX
RXF 631 = tested on: RXF 631
NCI-H23 = tested on: NCI-H23
HL-60 = tested on: HL-60
HOP-62 = tested on: HOP-62
UO-31 = tested on: UO-31
SR = tested on: SR
A498 = tested on: A498
SK-OV-3 = tested on: SK-OV-3
SK-MEL-2 = tested on: SK-MEL-2
CAKI-1 = tested on: CAKI-1
UACC-257 = tested on: UACC-257
Malme-3M = tested on: Malme-3M
UACC-62 = tested on: UACC-62
LXFL 529 = tested on: LXFL 529
SF-268 = tested on: SF-268
OVCAR-4 = tested on: OVCAR-4
IGROV-1 = tested on: IGROV-1
SF-295 = tested on: SF-295
LOX IMVI = tested on: LOX IMVI
KM12 = tested on: KM12
M14 = tested on: M14
DMS-273 = tested on: DMS-273
KM-20L2 = tested on: KM-20L2
COLO 205 = tested on: COLO 205
NCI-H460 = tested on: NCI-H460
NCI-H226 = tested on: NCI-H226
OVCAR-5 = tested on: OVCAR-5
SN12C = tested on: SN12C
SW-620 = tested on: SW-620
SNB-75 = tested on: SNB-75
K562 = tested on: K562
SNB-78 = tested on: SNB-78
NCI-H522 = tested on: NCI-H522
M19-MEL = tested on: M19-MEL
HCT-15 = tested on: HCT-15
XF498 = tested on: XF498
SF-539 = tested on: SF-539

Measured: GI50

CC(=O)OC1=C2CC3(C)OC(=O)CC(C)(C)C3=CC=C2C=C(C(C)C)C1=O (stereo not given)
0.179 µM: HCT-15
active: 786-0 0.203 µM | MOLT-4 0.294 µM | RPMI-8226 0.22 µM | HT-29 1.07 µM | HOP-92 0.207 µM | OVCAR-8 0.288 µM | RXF 393 0.184 µM | SK-MEL-28 0.456 µM | DMS-114 0.366 µM | SK-MEL-5 0.826 µM | CCRF-CEM 0.316 µM | HCT-116 0.41 µM | DLD-1 0.203 µM | HCC 2998 0.877 µM | ACHN 0.518 µM | RXF 631 0.723 µM | NCI-H23 0.42 µM | HL-60 0.28 µM | SR 0.278 µM | SK-MEL-2 0.459 µM | UACC-257 0.49 µM | Malme-3M 0.356 µM | UACC-62 0.268 µM | LXFL 529 0.157 µM | SF-268 1.05 µM | OVCAR-4 0.299 µM | IGROV-1 0.845 µM | LOX IMVI 0.201 µM | M14 0.334 µM | DMS-273 0.916 µM | COLO 205 0.631 µM | OVCAR-5 0.912 µM | SN12C 0.684 µM | SW-620 0.316 µM | SNB-75 0.71 µM | K562 0.307 µM | SNB-78 0.282 µM | NCI-H522 0.189 µM | M19-MEL 0.526 µM
inactive: SNB-19 1.83 µM | TK-10 1.21 µM | A549 1.9 µM | HOP-18 1.16 µM | U-251 1.6 µM | OVCAR-3 1.13 µM | EKVX 1.89 µM | HOP-62 11.4 µM | UO-31 1.74 µM | A498 1.57 µM | SK-OV-3 2.09 µM | CAKI-1 1.56 µM | SF-295 1.66 µM | KM12 1.15 µM | KM-20L2 1.62 µM | NCI-H460 1.51 µM | NCI-H226 1.74 µM

Brc1ccc(/N=c2/nc3ccccn3n3nc(-c4ccccc4)cc23)cc1
30.5 µM: HCT-15
inactive: 786-0 19.9 µM | SNB-19 28.5 µM | MOLT-4 > 100 µM | RPMI-8226 > 100 µM | XF498 10.3 µM | TK-10 29.8 µM | HT-29 75.5 µM | HOP-92 17.8 µM | OVCAR-8 28.3 µM | RXF 393 14.9 µM | SK-MEL-28 36 µM | A549 56.5 µM | DMS-114 99.8 µM | SK-MEL-5 > 100 µM | HOP-18 29.6 µM | CCRF-CEM > 100 µM | HCT-116 52.6 µM | U-251 29 µM | DLD-1 14.7 µM | ACHN 26.2 µM | OVCAR-3 22.1 µM | EKVX 47.6 µM | RXF 631 31.6 µM | NCI-H23 55.3 µM | HL-60 > 100 µM | HOP-62 15 µM | UO-31 > 100 µM | SR > 100 µM | SK-OV-3 > 100 µM | SK-MEL-2 9.57 µM | CAKI-1 15.9 µM | UACC-257 48.4 µM | Malme-3M 4.34 µM | UACC-62 15.1 µM | LXFL 529 56.8 µM | SF-268 41.6 µM | OVCAR-4 5.89 µM | IGROV-1 > 100 µM | SF-539 28.3 µM | SF-295 34.8 µM | KM12 39.9 µM | M14 13.7 µM | KM-20L2 66.4 µM | COLO 205 > 100 µM | NCI-H460 45.1 µM | NCI-H226 45.2 µM | SN12C 81.8 µM | SW-620 63.2 µM | SNB-75 52.4 µM | K562 > 100 µM | NCI-H522 17.3 µM | M19-MEL 43.6 µM

CCCO/S(=N\S(=O)(=O)c1ccccc1)c1ccccc1[N+](=O)[O-] (stereo not given)
inactive: 786-0 > 100 µM | SNB-19 > 100 µM | MOLT-4 > 100 µM | RPMI-8226 > 100 µM | XF498 > 100 µM | HT-29 > 100 µM | OVCAR-8 > 100 µM | SK-MEL-28 63.8 µM | A549 > 100 µM | DMS-114 > 100 µM | SK-MEL-5 > 100 µM | CCRF-CEM > 100 µM | HCT-116 > 100 µM | U-251 > 100 µM | DLD-1 > 100 µM | HCC 2998 > 100 µM | ACHN > 100 µM | OVCAR-3 > 100 µM | EKVX > 100 µM | RXF 631 > 100 µM | NCI-H23 > 100 µM | HOP-62 > 100 µM | UO-31 > 100 µM | SR > 100 µM | SK-OV-3 > 100 µM | SK-MEL-2 > 100 µM | CAKI-1 > 100 µM | UACC-257 > 100 µM | Malme-3M > 100 µM | UACC-62 > 100 µM | LXFL 529 > 100 µM | SF-268 > 100 µM | OVCAR-4 > 100 µM | IGROV-1 > 100 µM | SF-539 > 100 µM | SF-295 > 100 µM | LOX IMVI > 100 µM | KM12 > 100 µM | M14 > 100 µM | DMS-273 > 100 µM | KM-20L2 > 100 µM | COLO 205 > 100 µM | NCI-H460 > 100 µM | NCI-H226 > 100 µM | OVCAR-5 > 100 µM | SN12C > 100 µM | SW-620 > 100 µM | SNB-75 > 100 µM | K562 > 100 µM | SNB-78 > 100 µM | NCI-H522 > 100 µM | M19-MEL > 100 µM
> 100 µM: HCT-15

CC1(C)CC(=O)C(C(=O)C(=O)NC2=C(Cl)C(=O)c3ccccc3C2=O)C(=O)C1
46.5 µM: HCT-15
inactive: 786-0 > 100 µM | SNB-19 > 100 µM | MOLT-4 20.1 µM | RPMI-8226 34.8 µM | XF498 > 100 µM | TK-10 > 100 µM | HT-29 80.7 µM | OVCAR-8 > 100 µM | RXF 393 70.8 µM | SK-MEL-28 > 100 µM | A549 > 100 µM | DMS-114 67.9 µM | SK-MEL-5 73.8 µM | HOP-18 > 100 µM | CCRF-CEM 36 µM | HCT-116 > 100 µM | U-251 82.2 µM | DLD-1 > 100 µM | HCC 2998 45.4 µM | ACHN 91.4 µM | OVCAR-3 58.6 µM | EKVX > 100 µM | RXF 631 82.4 µM | NCI-H23 > 100 µM | HL-60 20.1 µM | HOP-62 > 100 µM | UO-31 57.4 µM | SR 30.8 µM | A498 > 100 µM | SK-OV-3 > 100 µM | SK-MEL-2 > 100 µM | CAKI-1 71.8 µM | UACC-257 > 100 µM | Malme-3M > 100 µM | UACC-62 45.5 µM | LXFL 529 49.1 µM | SF-268 > 100 µM | OVCAR-4 63.5 µM | IGROV-1 > 100 µM | SF-539 > 100 µM | SF-295 > 100 µM | LOX IMVI 80.9 µM | KM12 42.3 µM | M14 > 100 µM | KM-20L2 > 100 µM | COLO 205 38.7 µM | NCI-H460 51.2 µM | NCI-H226 39.4 µM | OVCAR-5 > 100 µM | SN12C 73.6 µM | SW-620 > 100 µM | SNB-75 71.1 µM | K562 32 µM | SNB-78 > 100 µM | NCI-H522 24 µM | M19-MEL 61.5 µM

CCSc1c2ccccc2c(-c2nc(F)nc(F)n2)n1CCc1ccccc1
> 100 µM: HCT-15
inactive: 786-0 > 100 µM | SNB-19 > 100 µM | MOLT-4 56.4 µM | RPMI-8226 > 100 µM | XF498 > 100 µM | TK-10 > 100 µM | HT-29 > 100 µM | HOP-92 > 100 µM | RXF 393 > 100 µM | SK-MEL-28 > 100 µM | A549 > 100 µM | DMS-114 > 100 µM | CCRF-CEM 36.2 µM | HCT-116 > 100 µM | U-251 > 100 µM | HCC 2998 > 100 µM | ACHN > 100 µM | OVCAR-3 > 100 µM | EKVX > 100 µM | RXF 631 > 100 µM | NCI-H23 > 100 µM | HL-60 > 100 µM | HOP-62 > 100 µM | UO-31 > 100 µM | SR 51.3 µM | A498 86.5 µM | SK-MEL-2 > 100 µM | CAKI-1 > 100 µM | Malme-3M > 100 µM | LXFL 529 > 100 µM | SF-268 > 100 µM | OVCAR-4 > 100 µM | SF-539 > 100 µM | SF-295 > 100 µM | LOX IMVI > 100 µM | KM12 > 100 µM | M14 > 100 µM | DMS-273 > 100 µM | KM-20L2 > 100 µM | COLO 205 > 100 µM | NCI-H460 > 100 µM | NCI-H226 > 100 µM | OVCAR-5 > 100 µM | SN12C > 100 µM | SW-620 > 100 µM | K562 > 100 µM | SNB-78 > 100 µM | NCI-H522 > 100 µM | M19-MEL > 100 µM
